Consider 24 compounds from patent US5212187A, “Pyridyl alkylamine compounds which are useful against histamine H1 and H2 receptors” (Zyma SA, priority 1991, dated 1993).

One assay has as its target T1, histamine H1 -receptors (Cavia porcellus, UniProt P31389).
T1 construct: isolated guinea pig ileum (H1); from tissue; host or cells: isolated guinea pig ileum
Description: in vitro histamine H1-antagonism on isolated guinea pig ileum. The settings on record: cumulative concentration/action curves (van Rossum), read-out: H1 -antagonism ileum -log KB (converted). The source says: (§1) The compounds of formula I according to the invention are distinguished by a novel overall pharmacological activity that has not been described hitherto. […] Suitable for differentiating the two types of action are, for example, in vitro tests on isolated spontaneously beating guinea pig right atrium (H2) and on isolated guinea pig ileum (H1) (Black, J. W.; Duncan, W. A. M.; Durant, G. J., Ganellin, C. R.; Parsons, M. E. (1972), "Definition and Antagonism of Histamine H2 -receptors", Nature 236, 385-390). The concentration/action curves for determining the pharmacological parameters (-log KB) are recorded using a cumulative technique according to van Rossum, J. M. (1963), "Cumulative Dose-Response Curves. II. Technique for the Making of Dose-Response Curves in Isolated Organs and the Evaluation of Drug Parameters", Arch. Int. Pharmacodyn. Ther. 143, 299-307.
(§2) (determined from isolated guinea pig ileum and atrium, […]

Another assay deals with T2, histamine H2 -receptors (Cavia porcellus, UniProt P47747).
T2 construct: isolated spontaneously beating guinea pig right atrium (H2); from tissue; host or cells: isolated spontaneously beating guinea pig right atrium
T2 sequence (P47747 whole entry): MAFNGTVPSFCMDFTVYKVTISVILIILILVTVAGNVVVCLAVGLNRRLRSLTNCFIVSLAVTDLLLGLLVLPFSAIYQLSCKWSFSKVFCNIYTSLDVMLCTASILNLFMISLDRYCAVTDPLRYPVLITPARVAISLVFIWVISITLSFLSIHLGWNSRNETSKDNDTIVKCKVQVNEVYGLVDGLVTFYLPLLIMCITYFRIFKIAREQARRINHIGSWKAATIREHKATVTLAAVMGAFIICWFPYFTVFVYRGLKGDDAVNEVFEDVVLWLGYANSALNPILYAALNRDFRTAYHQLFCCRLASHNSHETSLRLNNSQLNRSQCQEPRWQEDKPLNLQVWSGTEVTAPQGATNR
In words: in vitro histamine H2-antagonism on isolated spontaneously beating guinea pig right atrium. As to conditions: cumulative concentration/action curves (van Rossum), read-out: H2 -antagonism atrium -log KB (converted).
Source text: as §1, §2

T1 sequence (P31389 whole entry): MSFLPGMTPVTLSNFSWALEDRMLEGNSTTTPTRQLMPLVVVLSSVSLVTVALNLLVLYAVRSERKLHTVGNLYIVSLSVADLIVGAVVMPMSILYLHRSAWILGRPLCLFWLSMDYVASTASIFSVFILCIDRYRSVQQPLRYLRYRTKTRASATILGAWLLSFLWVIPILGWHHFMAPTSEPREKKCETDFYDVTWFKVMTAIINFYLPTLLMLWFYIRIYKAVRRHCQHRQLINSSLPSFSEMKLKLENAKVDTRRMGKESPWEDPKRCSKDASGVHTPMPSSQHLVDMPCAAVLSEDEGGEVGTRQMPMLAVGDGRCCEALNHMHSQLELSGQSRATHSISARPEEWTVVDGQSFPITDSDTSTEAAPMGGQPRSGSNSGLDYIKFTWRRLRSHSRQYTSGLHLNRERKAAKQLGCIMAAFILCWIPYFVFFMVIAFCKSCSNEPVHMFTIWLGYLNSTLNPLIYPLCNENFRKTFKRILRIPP

Usually Kb stands for the affinity of an antagonist, worked out from how it opposes an agonist. With `COc1ccc(CN(CCN(C)CCCCNC(=O)NCCSCc2csc(NC(=N)N)n2)c2ccccn2)cc1` [Example 88, N-[2-[[(2-guanidino-4-thiazolyl)methyl]thio]ethyl]-N'-[4-[N-[2-[N-(4-methoxybenzyl)-N-(2-pyridyl)amino]ethyl]-N-methylamino]butyl]urea], the Kb was 1.82 nM on histamine H1 -receptors and 219 nM on histamine H2 -receptors.
For `CN(CCCCCCCNC(=NCCSCc1csc(NC(=N)N)n1)NC#N)CCN(Cc1ccc(F)cc1)c1ccccn1` [Example 85, N-cyano-N'-[7-[N-[2-[N-(4-fluorobenzyl)-N-(2-pyridyl)amino]ethyl]-N-methylamino]heptyl]-N"-[2-[[(2-guanidino-4-thiazolyl)methyl]thio]ethyl]guanidine], the Kb was 7.08 nM on histamine H1 -receptors and 95.5 nM at histamine H2 -receptors.
Taken in the same sequence, the figures for `CN(CCCCNC(=NCCSCc1csc(NC(=N)N)n1)NC#N)CCC(c1ccc(Cl)cc1)c1ccccn1` (stereo not drawn) [Example 17, N-[4-[N-[3-(4-chlorophenyl)-3-(2-pyridyl)propyl]-N-methylamino]butyl]-N'-cyano-N"-[2-[[(2-guanidino-4-thiazolyl)methyl]thio]ethyl]guanidine] were 5.01 nM and 166 nM.
The corresponding values for `COc1ccc(CN(CCN(C)CCCCCCNC(=O)NCCSCc2csc(NC(=N)N)n2)c2ccccn2)cc1` [Example 89, N-[2-[[(2-guanidino-4-thiazolyl)methyl]thio]ethyl]-N'-[6-[N-[2-[N-(4-methoxybenzyl)-N-(2-pyridyl)amino]ethyl]-N-methylamino]hexyl]urea] are 1.74 nM and 174 nM.
As for `CN(CCCCCNC(=NCCSCc1csc(NC(=N)N)n1)NC#N)CCC(c1ccc(Cl)cc1)c1ccccn1` (stereo not drawn) [Example 18, N-[5-[N-[3-(4-chlorophenyl)-3-(2-pyridyl)propyl]-N-methylamino]pentyl]-N'-cyano-N"-[2-[[(2-guanidino-4-thiazolyl)methyl]thio]ethyl]guanidine], the values for the Kb on histamine H1 -receptors and on histamine H2 -receptors were 3.72 nM and 126 nM, respectively.
Taken in the same sequence, the figures for `CN(CCCCCCCNC(=O)NCCSCc1csc(NC(=N)N)n1)CCC(c1ccc(Cl)cc1)c1ccccn1` (stereo not drawn) [Example 36, N-[7-[N-[3-(4-chlorophenyl)-3-(2-pyridyl)propyl]-N-methylamino]heptyl]-N'-[2-[[(2-guanidino-4-thiazolyl)methyl]thio]ethyl]urea] were 5.37 nM and 26.9 nM.
Taken in the same sequence, the figures for `CN(CCNC(=NCCCCOc1cccc(CN2CCCCC2)c1)NC#N)CCC(c1ccc(Cl)cc1)c1ccccn1` (stereo not drawn) [Example 1, N-[2-[N-[3-(4-chlorophenyl)-3-(2-pyridyl)propyl]-N-methylamino]ethyl]-N'-cyano-N"-[4-[3-(piperidinomethyl)phenoxy]butyl]guanidine] were 63.1 nM and 2290 nM.
Taken in the same sequence, the figures for `CN(CCCCCCNC(=NCCCOc1cccc(CN2CCCCC2)c1)NC#N)CCN(Cc1ccc(F)cc1)c1ccccn1` [Example 60, N-cyano-N'-[6-[N-[2-[N-(4-fluorobenzyl)-N-(2-pyridyl)amino]ethyl]-N-methylamino]hexyl]-N"-[3-[3-(piperidinomethyl)phenoxy]propyl]guanidine] were 8.71 nM and 389 nM.
Turning to `CN(CCCCCCNC(=NC#N)NCCSCc1csc(N=C(N)N)n1)CCN(Cc1ccc(F)cc1)c1ccccn1` [Example 84], the Kb on histamine H1 -receptors is 3.63 nM; at histamine H2 -receptors, 302 nM.
For the compound `Cc1[nH]cnc1CSCCNC(=O)NCCCN(C)CCC(c1ccc(Cl)cc1)c1ccccn1` (stereo not drawn) [Example 50, N-[3-[N-[3-(4-chlorophenyl)-3-(2-pyridyl)propyl]-N-methylamino]propyl]-N'-[2-[[(5-methylimidazol-4-yl)methyl]thio]ethyl]urea], the Kb at histamine H1 -receptors is 7.08 nM; on histamine H2 -receptors it was 6460 nM.
For `CN(CCCCCCNC(=O)NCCSCc1csc(NC(=N)N)n1)CCN(Cc1ccc(F)cc1)c1ccccn1` [Example 94, N-[6-[N-[2-[N-(4-fluorobenzyl)-N-(2-pyridyl)amino]ethyl]-N-methylamino]hexyl]-N'-[2-[[(2-guanidino-4-thiazolyl)methyl]thio]ethyl]urea], the Kb was 1.58 nM on histamine H1 -receptors and 141 nM at histamine H2 -receptors.
On to `CN(CCCCCCCNC(=C[N+](=O)[O-])NCCSCc1csc(NC(=N)N)n1)CCC(c1ccc(Cl)cc1)c1ccccn1` (stereo not drawn) [Example 23, N-[7-[N-[3-(4-chlorophenyl)-3-(2-pyridyl)propyl]-N-methylamino]heptyl]-N'-[2-[[(2-guanidino-4-thiazolyl)methyl]thio]ethyl]-2-nitro-1,1-ethenediamine], for which the Kb on histamine H1 -receptors is 5.01 nM; on histamine H2 -receptors, 12.6 nM.
On to `COc1ccc(CN(CCN(C)CCCCCCNC(=C[N+](=O)[O-])NCCSCc2csc(NC(=N)N)n2)c2ccccn2)cc1` [Example 96, N-[2-[[(2-guanidino-4-thiazolyl)methyl]thio]ethyl]-N'-[6-[N-[2-[N-(4-methoxybenzyl)-N-(2-pyridyl)amino]ethyl]-N-methylamino]hexyl]-2-nitro-1,1-ethenediamine], for which the Kb on histamine H1 -receptors was 3.09 nM; at histamine H2 -receptors, 5.25 nM.
The corresponding values for `CN(CCCCCNC(=O)NCCCOc1cccc(CN2CCCCC2)c1)CCN(Cc1ccc(F)cc1)c1ccccn1` [Example 70, N-[5-[N-[2-[N-(4-fluorobenzyl)-N-(2-pyridyl)amino]ethyl]-N-methylamino]-pentyl]-N'-[3-[3-(piperidinomethyl)phenoxy]propyl]urea] are 9.55 nM and 135 nM.
Taken in the same sequence, the figures for `CN(CCCNC(=NCCCOc1cccc(CN2CCCCC2)c1)NC#N)CCC(c1ccccc1)c1ccccn1` (stereo not drawn) [Example 10, N-cyano-N'-[3-[N-[3-phenyl-3-(2-pyridyl)propyl]-N-methylamino]propyl]-N"-[3-[3-(piperidinomethyl)phenoxy]propyl]guanidine] were 6.46 nM and 1480 nM.
`CN(CCCNC(=O)NCCCOc1cccc(CN2CCCCC2)c1)CCC(c1ccc(F)cc1)c1ccccn1` (stereo not drawn) [Example 30, N-[3-[N-[3-(4-fluorophenyl)-3-(2-pyridyl)propyl]-N-methylamino]propyl]-N'-[3-[3-(piperidinomethyl)phenoxy]propyl]urea]: the Kb is 6.17 nM on histamine H1 -receptors and 209 nM on histamine H2 -receptors.
The corresponding values for `CN(CCCCCCCNC(=S)NCCSCc1csc(NC(=N)N)n1)CCC(c1ccc(Cl)cc1)c1ccccn1` (stereo not drawn) [Example 48, N-[7-[N-[3-(4-chlorophenyl)-3-(2-pyridyl)propyl]-N-methylamino]heptyl]-N'-[2-[[(2-guanidino-4-thiazolyl)methyl]thio]ethyl]thiourea] are 20 nM and 60.3 nM.
As to `CN(C)Cc1ccc(CSCCNC(=C[N+](=O)[O-])NCCCN(C)CCN(Cc2ccc(F)cc2)c2ccccn2)o1` [Example 104, N-[2-[[5-[(dimethylamino)methyl]furfuryl]thio]ethyl]-N'-[3-[N-[2-[N-(4-fluorobenzyl)-N-(2-pyridyl)amino]ethyl]-N-methylamino]propyl]-2-nitro-1,1-ethenediamine], the Kb is 10.7 nM at histamine H1 -receptors and 1350 nM at histamine H2 -receptors.
The corresponding values for `COc1ccc(CN(CCN(C)CCCCCCN=C(NC#N)NCCSCc2csc(NC(=N)N)n2)c2ccccn2)cc1` [Example 79, N-cyano-N'-[2-[[(2-guanidino-4-thiazolyl)methyl]thio]ethyl]-N"-[6-[N-[2-[N-(4-methoxybenzyl)-N-(2-pyridyl)amino]ethyl]-N-methylamino]hexyl]-guanidine] are 2.45 nM and 245 nM.
Regarding `CN(CCCCCCCNC(=O)NCCCOc1cccc(CN2CCCCC2)c1)CCN(Cc1ccc(F)cc1)c1ccccn1` [Example 72, N-[7-[N-[2-[N-(4-fluorobenzyl)-N-(2-pyridyl)amino]ethyl]-N-methylamino]heptyl]-N'-[3-[3-(piperidinomethyl)phenoxy]propyl]urea], the Kb was 17.8 nM at histamine H1 -receptors and 44.7 nM at histamine H2 -receptors.
Taken in the same sequence, the figures for `CN(CCCCCCCNC(=NCCSCc1csc(NC(=N)N)n1)NC#N)CCC(c1ccc(Cl)cc1)c1ccccn1` (stereo not drawn) [Example 20, N-[7-[N-[3-(4-chlorophenyl)-3-(2-pyridyl)propyl]-N-methylamino]heptyl]-N'-cyano-N"-[2-[[(2-guanidino-4-thiazolyl)methyl]thio]ethyl]guanidine] were 4.17 nM and 30.9 nM.
The corresponding values for `CN(C)Cc1ccc(CSCCNC(=O)NCCCCN(C)CCN(Cc2ccc(F)cc2)c2ccccn2)o1` [Example 103, N-[2-[[5-[(dimethylamino)methyl]furfuryl]thio]ethyl]-N'-[4-[N-[2-[N-(4-fluorobenzyl)-N-(2-pyridyl)amino]ethyl]-N-methylamino]butyl]urea] are 24.5 nM and 1200 nM.
`CN(CCCCNC(=NCCCOc1cccc(CN2CCCCC2)c1)NC#N)CCC(c1ccccc1)c1ccccn1` (stereo not drawn) [Example 9, N-cyano-N'-[4-[N-[3-phenyl-3-(2-pyridyl)propyl]-N-methylamino]butyl]-N"-[3-[3-(piperidinomethyl)phenoxy]propyl]guanidine]: the figures for the Kb at histamine H1 -receptors and at histamine H2 -receptors were 11.7 nM and 501 nM, respectively.
The corresponding values for `COc1ccc(CN(CCN(C)CCCCCCNC(=NCCCOc2cccc(CN3CCCCC3)c2)NC#N)c2ccccn2)cc1` [Example 55, N-cyano-N'-[6-[N-[2-[N-(4-methoxybenzyl)-N-(2-pyridyl)amino]ethyl]-N-methylamino]hexyl]-N"-[3-[3-(piperidinomethyl)phenoxy]propyl]guanidine] are 7.24 nM and 372 nM.
